Tested on: PDC KRAS tumor spheroids with HUVEC/MSC, viability
Assay: Anticancer human tumor 349418-098-R-PDC patient-derived lung adenocarcinoma cell line growth inhibition [KRAS2]
Conditions: for IC50: curve of first compound; for viability, T/C: stronger effect = lower value
Outline: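 Combination screen of spheroid viability in tumor-cell co-cultures with endothelial (HUVEC) and mesenchymal stem cell stroma. Each agent was tested in half-log dilutions, topping at clinical Cmax or at 10 microM without a known Cmax.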

[1] = second compound 0.1 µM, first compound 0.01 µM
[2] = second compound 0.1 µM, first compound 0.0316 µM
[3] = second compound 0.1 µM, first compound 0.1 µM
[4] = second compound 0.1 µM, first compound 0.316 µM
[5] = second compound 0.1 µM, first compound 1 µM
[6] = second compound 0.316 µM, first compound 0.01 µM
[7] = second compound 0.316 µM, first compound 0.0316 µM
[8] = second compound 0.316 µM, first compound 0.1 µM
[9] = second compound 0.316 µM, first compound 0.316 µM
[10] = second compound 0.316 µM, first compound 1 µM
[11] = second compound 1 µM, first compound 0.01 µM
[12] = second compound 1 µM, first compound 0.0316 µM
[13] = second compound 1 µM, first compound 0.1 µM
[14] = second compound 1 µM, first compound 0.316 µM
[15] = second compound 1 µM, first compound 1 µM
[16] = second compound 3.16 µM, first compound 0.01 µM
[17] = second compound 3.16 µM, first compound 0.0316 µM
[18] = second compound 3.16 µM, first compound 0.1 µM
[19] = second compound 3.16 µM, first compound 0.316 µM
[20] = second compound 3.16 µM, first compound 1 µM
[21] = second compound 10 µM, first compound 0.01 µM
[22] = second compound 10 µM, first compound 0.0316 µM
[23] = second compound 10 µM, first compound 0.1 µM
[24] = second compound 10 µM, first compound 0.316 µM
[25] = second compound 10 µM, first compound 1 µM
[26] = second compound 0.1 µM, first compound 3.16 µM
[27] = second compound 0.316 µM, first compound 3.16 µM
[28] = second compound 1 µM, first compound 3.16 µM
[29] = second compound 3.16 µM, first compound 3.16 µM
[30] = second compound 10 µM, first compound 3.16 µM
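Note: spheroids exposed to compounds for seven days before readout.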

Row | SMILES | IC50 (second compound 0.1 µM) [nM] | IC50 (second compound 0.316 µM) [nM] | IC50 (second compound 1 µM) [nM] | IC50 (second compound 3.16 µM) [nM] | viability, T/C [2] [%] | viability, T/C [3] [%] | viability, T/C [4] [%] | viability, T/C [5] [%] | viability, T/C [7] [%] | viability, T/C [8] [%] | viability, T/C [9] [%] | viability, T/C [10] [%] | viability, T/C [12] [%] | viability, T/C [13] [%] | viability, T/C [14] [%] | viability, T/C [15] [%] | viability, T/C [17] [%] | viability, T/C [18] [%] | viability, T/C [19] [%] | viability, T/C [20] [%] | also measured
1 | CCN1CCN(Cc2ccc(Nc3ncc(F)c(-c4cc(F)c5nc(C)n(C(C)C)c5c4)n3)nc2)CC1 + CC1OCC2(CCN(c3cnc(Sc4ccnc(N)c4Cl)c(N)n3)CC2)C1N | 5.38 | 3.38 | 7.27 | 7.9 | 21.4 | 14.6 | 13.6 | 4.93 | 18.1 | 23.4 | 10.2 | 6.35 | 21.1 | 16.4 | 10.7 | 3.95 | 23.7 | 18.1 | 10.1 | 3.58 | IC50 (second compound 10 µM): 6.16 nM; viability, T/C (second compound 0.1 µM, first compound 0.00316 µM): 66.4%; viability, T/C [1]: 28.3%; viability, T/C (second compound 0.316 µM, first compound 0.00316 µM): 50.9%; viability, T/C [6]: 37.3%; viability, T/C (second compound 1 µM, first compound 0.00316 µM): 70.2%; viability, T/C [11]: 43.6%; viability, T/C (second compound 3.16 µM, first compound 0.00316 µM): 61.6%; viability, T/C [16]: 49.8%; viability, T/C (second compound 10 µM, first compound 0.00316 µM): 68.6%; viability, T/C [21]: 36.7%; viability, T/C [22]: 18.2%; viability, T/C [23]: 15.1%; viability, T/C [24]: 9.7%; viability, T/C [25]: 3.29%
2 | CC(=O)OC12COC1CC(O)C1(C)C(=O)C(O)C3=C(C)C(OC(=O)C(O)C(NC(=O)OC(C)(C)C)c4ccccc4)CC(O)(C(OC(=O)c4ccccc4)C21)C3(C)C (stereo not given) + CNCc1ccccc1-c1csc(C(C)Nc2nc(C)nc3cc(OC)c(OC)cc23)c1 | < 10 | < 10 | < 10 | < 10 | 14.8 | 18.9 | 17.3 | 22 | 13.9 | 15.6 | 17.8 | 21 | 15.3 | 15 | 21.2 | 23.8 | 0.13 | 0.09 | 0.15 | 0.1 | IC50 (second compound 10 µM): < 10 nM; viability, T/C [1]: 13.4%; viability, T/C [26]: 24.9%; viability, T/C [6]: 10.7%; viability, T/C [27]: 21.6%; viability, T/C [11]: 11%; viability, T/C [28]: 24.2%; viability, T/C [16]: 8.03%; viability, T/C [29]: 23.6%; viability, T/C [21]: 0.19%; viability, T/C [22]: 0.12%; viability, T/C [23]: 0.12%; viability, T/C [24]: 0.17%; viability, T/C [25]: 22.6%; viability, T/C [30]: 0.21%
3 | CC1COCCN1c1cc(-c2ccnn2C)c2ccnc(-c3ccn[nH]3)c2n1 (stereo not given) + C=CC(=O)N1CCN(c2nc(OCC3CCCN3C)nc3c2CCN(c2cccc4cccc(C)c24)C3)CC1CC#N | 31.1 | 23.8 | < 10 | < 10 | 49.1 | 9.48 | 5.64 | 4.53 | 33 | 5.66 | 4.96 | 4.7 | 4.15 | 3.41 | 4.26 | 3.79 | 0.21 | 0.07 | 0.06 | 0.07 | IC50 (second compound 0.0316 µM): 29.8 nM; viability, T/C (second compound 0.0316 µM, first compound 0.01 µM): 94.1%; viability, T/C (second compound 0.0316 µM, first compound 0.0316 µM): 47.6%; viability, T/C (second compound 0.0316 µM, first compound 0.1 µM): 9.45%; viability, T/C (second compound 0.0316 µM, first compound 0.316 µM): 5.83%; viability, T/C (second compound 0.0316 µM, first compound 1 µM): 4.78%; viability, T/C (second compound 0.0316 µM, first compound 3.16 µM): 4.54%; viability, T/C [1]: 112%; viability, T/C [26]: 3.65%; viability, T/C [6]: 102%; viability, T/C [27]: 4.39%; viability, T/C [11]: 43.6%; viability, T/C [28]: 3.79%; viability, T/C [16]: 0.1%; viability, T/C [29]: 0.12%
4 | O=C(c1cc(Cc2n[nH]c(=O)c3ccccc23)ccc1F)N1CCN(C(=O)C2CC2)CC1 + CC1OCC2(CCN(c3cnc(Sc4ccnc(N)c4Cl)c(N)n3)CC2)C1N | 4710 | 3270 | 4240 | 2800 | 95.9 | 89.7 | 89 | 81.3 | 78.8 | 82.6 | 77.3 | 78.5 | 107 | 97.3 | 81.8 | 59.9 | 90.8 | 84 | 68.6 | 70.6 | IC50 (second compound 10 µM): 1450 nM; viability, T/C [26]: 63.5%; viability, T/C (second compound 0.1 µM, first compound 10 µM): 25.3%; viability, T/C [27]: 50.6%; viability, T/C (second compound 0.316 µM, first compound 10 µM): 29.2%; viability, T/C [28]: 66.7%; viability, T/C (second compound 1 µM, first compound 10 µM): 33%; viability, T/C [29]: 48.3%; viability, T/C (second compound 3.16 µM, first compound 10 µM): 23.9%; viability, T/C [22]: 80.9%; viability, T/C [23]: 72.8%; viability, T/C [24]: 59.2%; viability, T/C [25]: 56.6%; viability, T/C [30]: 44.1%; viability, T/C (second compound 10 µM, first compound 10 µM): 29.7%

Reference: PubChem BioAssay AID1963866 (Molecular Pharmacology Branch, DTP, NCI, 2024)
